Assay [1] deals with Glycogen synthase kinase-3 beta (Homo sapiens, UniProt P49841). In words: Percentage GSK3-beta activity remaining in the presence of 0.01uM inhibitor.
In assay [2] the target is Protein kinase C alpha type (Homo sapiens) (UniProt P17252). In words: Percentage PKCalpha activity remaining in the presence of 0.01uM inhibitor.
The target of assay [3] is Serine/threonine-protein kinase PAK 5 (Homo sapiens) (UniProt Q9P286). The assay is described as follows: Percentage PAK5 activity remaining in the presence of 0.01uM inhibitor.
The target in assay [4] is Ribosomal protein S6 kinase beta-1 (Homo sapiens, UniProt P23443). In words: Percentage S6K1 activity remaining in the presence of 0.01uM inhibitor.
Sequence of Ribosomal protein S6 kinase beta-1 (P23443 whole entry, looked up): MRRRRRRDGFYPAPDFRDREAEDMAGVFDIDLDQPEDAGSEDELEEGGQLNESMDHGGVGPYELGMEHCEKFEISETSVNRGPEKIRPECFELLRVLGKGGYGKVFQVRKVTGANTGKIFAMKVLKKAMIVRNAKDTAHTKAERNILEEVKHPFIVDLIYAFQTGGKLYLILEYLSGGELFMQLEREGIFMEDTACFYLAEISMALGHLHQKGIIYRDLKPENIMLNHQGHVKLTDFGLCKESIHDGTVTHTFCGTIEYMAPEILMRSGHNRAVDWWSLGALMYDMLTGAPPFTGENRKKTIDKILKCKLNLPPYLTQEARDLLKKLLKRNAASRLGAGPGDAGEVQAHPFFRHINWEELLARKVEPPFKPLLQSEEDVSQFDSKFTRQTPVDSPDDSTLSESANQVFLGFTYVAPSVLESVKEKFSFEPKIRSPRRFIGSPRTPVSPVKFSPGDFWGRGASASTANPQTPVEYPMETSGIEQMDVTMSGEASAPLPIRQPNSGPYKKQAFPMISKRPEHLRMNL
Assay [5] has as its target Mitogen-activated protein kinase 8 (Homo sapiens, UniProt P45983). The assay is described as follows: Percentage JNK1 activity remaining in the presence of 0.01uM inhibitor.
Assay [6] deals with T1, Mitogen-activated protein kinase 15 (Homo sapiens) (UniProt Q8TD08).
T1 sequence (whole entry): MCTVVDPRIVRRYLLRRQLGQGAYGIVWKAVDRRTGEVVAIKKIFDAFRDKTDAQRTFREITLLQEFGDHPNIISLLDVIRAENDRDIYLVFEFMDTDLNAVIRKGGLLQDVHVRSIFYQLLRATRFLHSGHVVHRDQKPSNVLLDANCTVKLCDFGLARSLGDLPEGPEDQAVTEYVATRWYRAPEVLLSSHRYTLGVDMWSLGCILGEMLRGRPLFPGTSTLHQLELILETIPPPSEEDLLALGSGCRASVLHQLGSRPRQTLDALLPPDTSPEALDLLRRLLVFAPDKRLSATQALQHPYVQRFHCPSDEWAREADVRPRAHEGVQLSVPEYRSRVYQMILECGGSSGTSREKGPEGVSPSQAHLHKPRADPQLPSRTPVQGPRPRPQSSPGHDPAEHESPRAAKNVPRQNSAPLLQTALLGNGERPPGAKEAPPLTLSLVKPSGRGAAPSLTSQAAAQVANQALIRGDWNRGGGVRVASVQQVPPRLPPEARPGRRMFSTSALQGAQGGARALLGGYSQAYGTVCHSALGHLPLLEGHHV
The assay is described as follows: Percentage ERK8 activity remaining in the presence of 0.01uM inhibitor.

In assay [7] the target is Serine/threonine-protein kinase Nek6 (Homo sapiens) (UniProt Q9HC98). The assay is described as follows: Percentage NEK6 activity remaining in the presence of 0.01uM inhibitor.
Sequence of Serine/threonine-protein kinase Nek6 (Homo sapiens) (Q9HC98 whole entry): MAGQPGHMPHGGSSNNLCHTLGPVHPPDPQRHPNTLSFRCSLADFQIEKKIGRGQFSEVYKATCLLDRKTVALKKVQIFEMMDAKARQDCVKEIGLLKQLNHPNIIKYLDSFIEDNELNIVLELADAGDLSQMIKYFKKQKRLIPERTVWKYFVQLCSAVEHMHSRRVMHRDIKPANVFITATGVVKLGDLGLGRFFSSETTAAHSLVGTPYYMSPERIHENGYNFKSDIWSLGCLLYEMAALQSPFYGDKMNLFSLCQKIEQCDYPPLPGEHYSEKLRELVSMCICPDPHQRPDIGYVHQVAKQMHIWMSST
For assay [8], the target named is Serine/threonine-protein kinase Nek7 (Homo sapiens) (UniProt Q8TDX7). In words: Percentage NEK7 activity remaining in the presence of 0.01uM inhibitor.
Sequence of Serine/threonine-protein kinase Nek7 (Homo sapiens) (Q8TDX7 whole entry, looked up): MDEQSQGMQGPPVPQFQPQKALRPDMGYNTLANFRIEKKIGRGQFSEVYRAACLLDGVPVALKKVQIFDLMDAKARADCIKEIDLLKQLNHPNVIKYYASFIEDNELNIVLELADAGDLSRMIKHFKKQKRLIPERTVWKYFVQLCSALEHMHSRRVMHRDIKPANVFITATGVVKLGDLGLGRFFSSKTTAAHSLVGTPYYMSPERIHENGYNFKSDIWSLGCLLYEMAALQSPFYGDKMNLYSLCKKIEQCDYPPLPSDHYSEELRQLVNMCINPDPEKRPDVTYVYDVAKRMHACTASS
Assay [9] addresses Serine/threonine-protein kinase pim-1 (Homo sapiens, UniProt P11309). In words: Percentage PIM1 activity remaining in the presence of 0.01uM inhibitor.
In assay [10] the target is Homeodomain-interacting protein kinase 3 (Homo sapiens) (UniProt Q9H422). In words: Percentage HIPK3 activity remaining in the presence of 0.01uM inhibitor.
Sequence of Homeodomain-interacting protein kinase 3 (Homo sapiens) (Q9H422 whole entry, looked up): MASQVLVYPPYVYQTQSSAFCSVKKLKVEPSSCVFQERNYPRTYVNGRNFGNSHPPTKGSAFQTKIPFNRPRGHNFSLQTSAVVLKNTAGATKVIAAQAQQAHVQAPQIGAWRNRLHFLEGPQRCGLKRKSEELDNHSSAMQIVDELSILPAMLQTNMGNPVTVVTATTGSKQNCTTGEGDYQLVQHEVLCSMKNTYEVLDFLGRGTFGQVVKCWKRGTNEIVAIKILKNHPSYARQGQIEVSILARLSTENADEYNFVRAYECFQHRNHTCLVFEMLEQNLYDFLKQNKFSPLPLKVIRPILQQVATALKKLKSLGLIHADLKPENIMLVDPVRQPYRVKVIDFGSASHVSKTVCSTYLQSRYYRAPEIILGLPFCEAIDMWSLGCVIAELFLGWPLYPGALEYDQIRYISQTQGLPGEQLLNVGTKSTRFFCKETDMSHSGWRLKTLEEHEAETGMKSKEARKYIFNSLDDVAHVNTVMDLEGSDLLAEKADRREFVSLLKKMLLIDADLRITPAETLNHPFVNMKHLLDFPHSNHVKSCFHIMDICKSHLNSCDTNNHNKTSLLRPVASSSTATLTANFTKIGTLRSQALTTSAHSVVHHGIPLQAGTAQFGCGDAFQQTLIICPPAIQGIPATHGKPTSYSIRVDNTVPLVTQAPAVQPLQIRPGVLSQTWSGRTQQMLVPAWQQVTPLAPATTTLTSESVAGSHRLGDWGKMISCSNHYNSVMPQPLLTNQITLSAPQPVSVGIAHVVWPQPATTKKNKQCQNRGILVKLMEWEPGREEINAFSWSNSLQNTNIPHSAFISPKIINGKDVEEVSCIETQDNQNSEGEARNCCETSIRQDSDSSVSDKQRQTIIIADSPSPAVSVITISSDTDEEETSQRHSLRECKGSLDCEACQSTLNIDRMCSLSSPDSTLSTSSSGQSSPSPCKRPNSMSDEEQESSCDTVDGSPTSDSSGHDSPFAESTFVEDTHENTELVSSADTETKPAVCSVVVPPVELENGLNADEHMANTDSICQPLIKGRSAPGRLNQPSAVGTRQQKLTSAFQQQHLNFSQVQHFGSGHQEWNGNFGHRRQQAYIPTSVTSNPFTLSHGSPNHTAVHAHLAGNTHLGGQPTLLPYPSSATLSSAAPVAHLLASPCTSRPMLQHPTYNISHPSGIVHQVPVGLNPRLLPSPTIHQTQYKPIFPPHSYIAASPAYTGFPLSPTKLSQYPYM
The target of assay [11] is MAP kinase-activated protein kinase 2 (Homo sapiens) (UniProt P49137). The assay is described as follows: Percentage MAPKAPK2 activity remaining in the presence of 0.01uM inhibitor.
Sequence of MAP kinase-activated protein kinase 2 (Homo sapiens) (P49137 whole entry, looked up): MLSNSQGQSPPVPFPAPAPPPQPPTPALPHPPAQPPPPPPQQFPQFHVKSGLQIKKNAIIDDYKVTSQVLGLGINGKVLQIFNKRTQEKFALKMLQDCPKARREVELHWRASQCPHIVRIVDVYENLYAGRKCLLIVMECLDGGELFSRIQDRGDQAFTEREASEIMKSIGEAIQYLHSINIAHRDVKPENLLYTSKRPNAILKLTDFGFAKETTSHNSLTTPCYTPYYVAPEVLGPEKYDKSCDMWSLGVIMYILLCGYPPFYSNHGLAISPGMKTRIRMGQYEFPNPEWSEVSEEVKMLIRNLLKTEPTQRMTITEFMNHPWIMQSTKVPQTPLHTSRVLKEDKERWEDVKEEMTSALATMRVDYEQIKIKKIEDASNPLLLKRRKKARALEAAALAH
The target of assay [12] is Calcium/calmodulin-dependent protein kinase kinase 1 (Homo sapiens) (UniProt Q8N5S9). The assay is described as follows: Percentage CaMKKalpha activity remaining in the presence of 0.01uM inhibitor.
Sequence of Calcium/calmodulin-dependent protein kinase kinase 1 (Homo sapiens) (Q8N5S9 whole entry, looked up): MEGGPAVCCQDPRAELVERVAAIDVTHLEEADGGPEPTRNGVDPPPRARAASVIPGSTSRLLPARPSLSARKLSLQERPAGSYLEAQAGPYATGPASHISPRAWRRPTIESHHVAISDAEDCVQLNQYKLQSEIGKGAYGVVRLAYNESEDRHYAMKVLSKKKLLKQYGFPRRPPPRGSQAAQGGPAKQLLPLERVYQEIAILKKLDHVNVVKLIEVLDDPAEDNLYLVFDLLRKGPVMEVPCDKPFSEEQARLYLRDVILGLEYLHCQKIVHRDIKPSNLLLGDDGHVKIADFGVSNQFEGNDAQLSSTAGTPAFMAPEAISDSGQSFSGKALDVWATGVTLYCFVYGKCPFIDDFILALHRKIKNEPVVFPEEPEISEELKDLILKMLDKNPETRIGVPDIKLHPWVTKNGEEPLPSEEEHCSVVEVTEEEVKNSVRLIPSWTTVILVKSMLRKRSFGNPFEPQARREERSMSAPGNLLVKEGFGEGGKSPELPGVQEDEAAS
The target in assay [13] is Mitogen-activated protein kinase 10 (Homo sapiens) (UniProt P53779). In words: Percentage JNK3 activity remaining in the presence of 0.01uM inhibitor.
For assay [14], the target named is Proto-oncogene tyrosine-protein kinase Src (Gallus gallus) (UniProt P00523). In words: Percentage Src activity remaining in the presence of 0.01uM inhibitor.
In assay [15] the target is T2, Serine/threonine-protein kinase D1 (Homo sapiens) (UniProt Q15139).
T2 sequence (whole entry): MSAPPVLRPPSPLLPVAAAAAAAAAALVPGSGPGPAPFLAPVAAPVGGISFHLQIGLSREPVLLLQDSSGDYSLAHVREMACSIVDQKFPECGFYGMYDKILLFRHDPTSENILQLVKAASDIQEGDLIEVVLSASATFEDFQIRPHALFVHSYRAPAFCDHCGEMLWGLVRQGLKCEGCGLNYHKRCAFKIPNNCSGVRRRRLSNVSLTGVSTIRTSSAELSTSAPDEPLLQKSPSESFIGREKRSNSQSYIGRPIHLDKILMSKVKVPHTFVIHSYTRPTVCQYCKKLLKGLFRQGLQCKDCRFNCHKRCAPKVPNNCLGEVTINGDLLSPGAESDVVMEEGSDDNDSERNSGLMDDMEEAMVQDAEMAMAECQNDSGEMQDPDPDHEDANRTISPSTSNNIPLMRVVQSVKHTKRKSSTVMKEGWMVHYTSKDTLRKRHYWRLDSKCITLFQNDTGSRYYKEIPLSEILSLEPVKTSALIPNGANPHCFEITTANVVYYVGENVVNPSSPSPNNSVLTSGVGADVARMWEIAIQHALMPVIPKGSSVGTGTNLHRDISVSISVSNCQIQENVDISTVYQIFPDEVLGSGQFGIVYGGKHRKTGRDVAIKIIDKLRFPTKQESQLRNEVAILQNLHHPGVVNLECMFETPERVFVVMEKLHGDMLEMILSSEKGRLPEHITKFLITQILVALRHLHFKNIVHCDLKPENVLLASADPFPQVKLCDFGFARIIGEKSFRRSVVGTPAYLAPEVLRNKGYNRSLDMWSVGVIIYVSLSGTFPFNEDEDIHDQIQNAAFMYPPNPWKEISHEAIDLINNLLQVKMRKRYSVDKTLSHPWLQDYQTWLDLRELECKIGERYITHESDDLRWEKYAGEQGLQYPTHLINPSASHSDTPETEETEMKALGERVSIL
The assay is described as follows: Percentage PKD1 activity remaining in the presence of 0.01uM inhibitor.

The target in assay [16] is Aurora kinase B (Homo sapiens, UniProt Q96GD4). The assay is described as follows: Percentage Aurora B activity remaining in the presence of 0.01uM inhibitor.
Sequence of Aurora kinase B (Q96GD4 whole entry): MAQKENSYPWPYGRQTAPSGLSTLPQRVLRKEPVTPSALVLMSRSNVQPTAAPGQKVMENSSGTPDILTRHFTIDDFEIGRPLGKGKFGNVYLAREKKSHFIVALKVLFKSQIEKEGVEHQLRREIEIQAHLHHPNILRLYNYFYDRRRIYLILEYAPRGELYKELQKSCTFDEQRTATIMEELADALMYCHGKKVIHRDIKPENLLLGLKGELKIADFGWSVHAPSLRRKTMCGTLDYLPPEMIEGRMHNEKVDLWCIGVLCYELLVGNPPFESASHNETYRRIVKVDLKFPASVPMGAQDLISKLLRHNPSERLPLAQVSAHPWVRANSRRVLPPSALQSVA

Sequence of Serine/threonine-protein kinase pim-1 (P11309 whole entry, looked up): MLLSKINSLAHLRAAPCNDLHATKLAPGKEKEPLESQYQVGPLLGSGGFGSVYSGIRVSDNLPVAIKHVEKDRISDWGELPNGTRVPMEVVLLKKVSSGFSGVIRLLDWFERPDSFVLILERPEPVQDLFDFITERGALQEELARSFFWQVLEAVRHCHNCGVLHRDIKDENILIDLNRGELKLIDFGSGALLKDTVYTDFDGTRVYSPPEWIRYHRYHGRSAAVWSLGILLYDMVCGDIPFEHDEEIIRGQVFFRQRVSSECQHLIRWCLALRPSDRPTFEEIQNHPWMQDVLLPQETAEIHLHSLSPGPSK
Sequence of Mitogen-activated protein kinase 8 (P45983 whole entry): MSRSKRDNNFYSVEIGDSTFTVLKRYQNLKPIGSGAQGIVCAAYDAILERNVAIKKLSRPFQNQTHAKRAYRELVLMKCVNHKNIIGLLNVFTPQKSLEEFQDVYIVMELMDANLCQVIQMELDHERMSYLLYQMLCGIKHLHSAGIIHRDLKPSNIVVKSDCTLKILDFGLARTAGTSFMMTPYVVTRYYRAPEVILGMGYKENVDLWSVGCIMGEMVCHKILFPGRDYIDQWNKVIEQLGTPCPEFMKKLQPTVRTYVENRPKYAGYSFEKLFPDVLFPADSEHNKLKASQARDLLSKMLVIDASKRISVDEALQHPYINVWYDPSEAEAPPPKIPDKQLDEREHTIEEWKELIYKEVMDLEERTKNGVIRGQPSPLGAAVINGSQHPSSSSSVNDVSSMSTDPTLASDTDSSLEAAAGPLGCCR
Sequence of Glycogen synthase kinase-3 beta (P49841 whole entry, looked up): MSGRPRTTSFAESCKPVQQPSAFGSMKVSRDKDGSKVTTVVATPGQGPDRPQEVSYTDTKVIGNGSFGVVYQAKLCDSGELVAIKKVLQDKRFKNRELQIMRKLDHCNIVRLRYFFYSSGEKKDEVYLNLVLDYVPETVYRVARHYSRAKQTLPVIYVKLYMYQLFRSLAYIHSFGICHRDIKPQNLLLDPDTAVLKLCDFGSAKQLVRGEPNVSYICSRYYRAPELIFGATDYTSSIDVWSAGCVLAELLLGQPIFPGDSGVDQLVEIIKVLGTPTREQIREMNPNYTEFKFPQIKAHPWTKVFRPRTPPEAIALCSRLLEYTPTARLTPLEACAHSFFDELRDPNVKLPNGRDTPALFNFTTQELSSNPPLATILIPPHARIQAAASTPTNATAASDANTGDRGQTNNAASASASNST

Regarding `Cc1n[nH]c2ccc(-c3cncc(OC[C@@H](N)Cc4c[nH]c5ccccc45)c3)cc12`, the Activity in assay [1] was 81%; in assay [2] it was 73%; in assay [3], 104%; in assay [4], 88%; in assay [5], 89%; in [6] it was 61%. The Activity in [7] came out at 95%; in assay [8], 86%; in assay [9], 57%; in assay [10] it was 90%; in assay [11] it was 92%; in [12], 112%. In addition, the Activity in [13] amounted to 81%; in [14] it was 91%; in assay [15] it was 63%; in [16] it was 81%.

For the compound `O=C(NCCCNc1nc(Nc2cccc(NC(=O)N3CCCC3)c2)ncc1I)c1cccs1`, the Activity in assay [1] was 82%; in [2], 105%; in [3] it was 97%; in assay [4], 100%; in assay [5] it was 104%; in assay [6] (filed as antagonist), 40%. Moreover, the Activity in [7] is 96%; in assay [8], 111%; in [9], 103%; in assay [10], 95%; in assay [11], 108%; in [12], 86%. In addition, the Activity is 93% in [13], 90% in assay [14], 84% in assay [15] and 17% in assay [16] (filed as antagonist).

On to `CN[C@@H]1C[C@H]2O[C@@](C)([C@@H]1OC)n1c3ccccc3c3c4c(c5c6ccccc6n2c5c31)C(=O)N[C@H]4O` (stereo in doubt), for which the Activity in assay [1] was 77%; in assay [2] (filed as antagonist), 6%; in assay [3] (filed as antagonist), 36%; in assay [4], 96%; in assay [5], 79%; in assay [6] it was 92%. The Activity turned out to be 104% in assay [7]; 99% in assay [8]; 52% in [9]; 116% in [10]; 75% in assay [11]; 58% in assay [12]. The Activity is 107% in assay [13], 76% in [14], 83% in [15] and 59% in [16].

For the origin of these results see ChEMBL document CHEMBL1150976, “The selectivity of protein kinase inhibitors: a further update” (Biochem J, 2007).
